Experimental data taken from US20240391923A1, “METHIONINE ADENOSYLTRANSFERASE 2A INHIBITOR FOR TREATING MTAP DELETION-TYPE CANCER” (SUZHOU GENHOUSE BIO CO., LTD., priority 2022, published 2024).

Legend:
[1] = Metabolic stability test in hepatocytes, mouse; assay type: in vitro ADME; conditions: hepatocytes (suspension), Table 5: metabolic stability in hepatocytes, up to 90 min, read-out: Metabolic half-life in mouse liver microsome (T½, min)
Procedure: (§1) This experimental example was used to test the metabolic stability of the compounds in hepatocytes.
(§2) A suspension of hepatocytes was prepared at 0.5×10^6/mL with a pre-heated medium, then 198 μL of the pre-heated cell suspension was added to a 96-well plate. To each well of the 96-well plate, 2 μL of the test compound was added so that the final concentration was 1 μM, and 2 replicate wells were set. For the T=0 min sample, the compound was mixed well with the cells for 1 min, then […] was immediately added to 125 μL of a stop solution (an acetonitrile solution containing 200 ng/mL tolbutamide and 200 ng/mL labetalol) under an ice bath and mixed well. At the same time, all the plates were placed in an incubator at 37° C. with 5% CO2, with the shaker set at 600 rpm. The sample was mixed well at 15, 30, 60, and 90 min of incubation, respectively, and 25 μL of the sample was added to 125 μL of a stop solution (an acetonitrile solution containing 200 ng/mL tolbutamide and 200 ng/mL labetalol) under an ice bath, mixed well, and shaken at 500 rpm for 10 min. Subsequently, the plate was centrifuged for 20 min at 3220×g at 4° C. After the centrifugation was completed, 80 μL of the supernatant from each well was transferred to another 96-well plate containing 240 μL of ultrapure water. Subsequently, analysis was carried out using LC-MS/MS, and intrinsic clearance (CLint) and half-life (T½) were calculated.

[2] = Metabolic stability test in hepatocytes, rat; assay type: in vitro ADME; conditions: hepatocytes (suspension), Table 5: metabolic stability in hepatocytes, up to 90 min, read-out: Metabolic half-life in rat liver microsome (T½, min)
Procedure: as §1, §2

PXR = biological target: T1, PXR (Homo sapiens, UniProt O75469); assay: PXR activation test in stably transfected DPX2 cells; assay type: cell-based; conditions: for PXR activation fold (10 μM) / PXR activation fold (30 μM): DPX2 cells, 48 h; for activation activity on PXR at 30 μM (in words): summary of Table 10
T1 construct: host or cells: DPX2 cells
T1 sequence (O75469 1-434): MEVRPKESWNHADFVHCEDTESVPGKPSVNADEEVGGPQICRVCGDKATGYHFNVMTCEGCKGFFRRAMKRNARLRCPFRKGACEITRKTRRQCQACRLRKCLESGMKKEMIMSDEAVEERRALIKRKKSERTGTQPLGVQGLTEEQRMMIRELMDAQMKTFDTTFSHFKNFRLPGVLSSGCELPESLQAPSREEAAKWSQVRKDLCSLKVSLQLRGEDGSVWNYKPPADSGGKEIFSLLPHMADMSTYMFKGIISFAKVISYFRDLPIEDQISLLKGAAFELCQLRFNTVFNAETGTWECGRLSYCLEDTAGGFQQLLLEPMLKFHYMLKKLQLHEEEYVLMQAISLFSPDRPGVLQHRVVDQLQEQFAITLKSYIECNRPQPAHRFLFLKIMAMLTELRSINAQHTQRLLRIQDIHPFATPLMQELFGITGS
Procedure: In this example, the compound was tested for PXR activation.
100 μL of stably transfected DPX2 cells were seeded per well of a 96-well cell culture plate (4.5×10^5 cells/mL in Puracyp medium), followed by placing the 96-well plate in a 37° C. incubator. After 24 h, the 96-well plate was taken out from the incubator, the medium was replaced with 100 μL of the test compound (at a final concentration of 10 μM and 30 μM), positive control compound rifampicin (at a final concentration of 10 μM), and the DMSO treatment group (at a final concentration of 0.1%), and 3 replicate wells were set. The test plate was placed back into the incubator. After 24 h, the medium was replaced with the freshly prepared test compound and rifampicin solution, and the test plate was again placed back into the incubator. After the compound was treated for 48 h, the test plate was taken out from the incubator. The medium in the wells was discarded, the plate was washed twice with PBS, 50 μL of medium containing 1×CellTiter-Fluor™ Cell Viability Assay reagent was added, and the mixture was incubated at 37° C. for 30 min. The test plate was taken out and equilibrated to room temperature, and the fluorescence signal under the conditions of 400 nm excitation light/505 nm emission light was detected by a microplate reader.
Subsequently, 50 μL of medium containing ONE-Glo Assay reagent was added to each well, and the plate was shaken, mixed well, and incubated at room temperature for 5 min. Chemiluminescence was detected by a microplate reader. The data was analyzed to evaluate the PXR activation of the test compound.

[3] = test system: Human colorectal adenocarcinoma cells HCT116-MTAP-KO; assay: Mouse xenograft tumor pharmacodynamic model, HCT116-MTAP-KO; assay type: in vivo
Procedure: In this example, the in vivo efficacy of the compound in a mouse xenograft tumor model after intragastric (PO) administration was tested.
Human colorectal adenocarcinoma cells HCT116-MTAP-KO were cultured in monolayer in vitro under the condition of McCoy's 5A medium containing 10% fetal bovine serum and 1% penicillin and streptomycin, and the culture was carried out at 37° C. with 5% CO2. The cells were digested with trypsin three times a week for passaging. When the saturation degree of the cells was 80-90%, the cells were collected, counted and inoculated. 0.1 mL (5×10^6 cells) of HCT116-MTAP-KO cells were subcutaneously inoculated on the right back of each mouse. On day 16 after inoculation of the cells, the mean tumor volume reached 154 mm^3. The mice were randomly grouped for administration and intragastrically dosed once daily. Changes in body weight and tumor volume were recorded. After a certain number of days of administration, the experiment was ended. Tumor volume changes and mouse body weight changes were counted and analyzed. AG270 (CAS: 2201056-66-6) was the positive control compound.

| half-life at 1 μM [1] [min] | half-life at 1 μM [2] [min] | PXR activation fold (10 μM) (PXR) [fold] | PXR activation fold (30 μM) (PXR) [fold] | SMILES | further results |
| --- | --- | --- | --- | --- | --- |
| 124 | 150 | – | – | Cn1cc2c(n1)c(=O)n(-c1cccnc1C1CC1)c1cc(Cl)c(F)cc21 [Compound B340] | Tumor growth inhibition percentage (TGI) ([3]; PO 3 mg/kg once a day, 22 days of administration): once a day TGI = 48.04%; Tumor growth inhibition percentage (TGI) ([3]; PO 10 mg/kg once a day, 22 days of administration): once a day TGI = 61.99%; Tumor growth inhibition percentage (TGI) ([3]; PO 30 mg/kg once a day, 22 days of administration): once a day TGI = 72.55% |
| – | – | 3.37 | 7.87 | Cn1cc2c(n1)c(=O)n(-c1cccc3[nH]ncc13)c1cc(Cl)c(F)cc21 [Compound B257] | activation activity on PXR at 30 μM (in words) (PXR): very weak; Tumor growth inhibition percentage (TGI) ([3]; PO 1 mg/kg once a day, 15 days of administration): once a day TGI = 77.29%; Tumor growth inhibition percentage (TGI) ([3]; PO 1 mg/kg once a day, 28 days of administration): once a day TGI = 51.34%; Tumor growth inhibition percentage (TGI) ([3]; PO 3 mg/kg once a day, 28 days of administration): once a day TGI = 87.78% |
| 91.1 | – | 3.63 | 3.77 | Cn1cc2c(n1)c(=O)n(-c1cccc3[nH]ncc13)c1nc(C(F)(F)F)ccc21 [Compound B181] | activation activity on PXR at 30 μM (in words) (PXR): very weak |

Further lines, the compound ahead of its results:

| SMILES | half-life at 1 μM [1] [min] | half-life at 1 μM [2] [min] | PXR activation fold (10 μM) (PXR) [fold] | PXR activation fold (30 μM) (PXR) [fold] | further results |
| --- | --- | --- | --- | --- | --- |
| Cc1ncccc1-n1c(=O)c2nn(C)cc2c2ccc(C(F)(F)F)nc21 (single isomer, unassigned) [Compound B180] | 47.1 | 51.1 | – | – | – |
| Cn1cc2c(n1)c(=O)n(-c1cccnc1)c1cc(Cl)ccc21 [Compound B12] | 68.8 | – | – | – | – |
| Cn1cc2c(n1)c(=O)n(-c1cccc(O)c1)c1nc(C(F)(F)F)ccc21 [Compound B148] | 14.9 | 50.9 | – | – | – |
| Cn1cc2c(n1)c(=O)n(-c1cccc3[nH]ncc13)c1cc(Cl)ccc21 [Compound B60] | – | – | 7.06 | 21.71 | – |
| O=c1c2n[nH]cc2c2ccc(C(F)(F)F)nc2n1-c1cccnc1 [Compound B178] | – | – | 7.47 | 34.49 | – |
| Cn1cc2c(n1)c(=O)n(-c1cccc3[nH]ncc13)c1cc(Cl)c(C#N)cc21 [Compound B258] | – | – | – | – | Tumor growth inhibition percentage (TGI) ([3]; PO 3 mg/kg once a day, 15 days of administration): once a day TGI = 52.48%; Tumor growth inhibition percentage (TGI) ([3]; PO 10 mg/kg once a day, 15 days of administration): once a day TGI = 72.58%; Tumor growth inhibition percentage (TGI) ([3]; PO 30 mg/kg once a day, 15 days of administration): once a day TGI = 81.2%; Tumor growth inhibition percentage (TGI) ([3]; PO 100 mg/kg once a day, 15 days of administration): once a day TGI = 83.75% |
